Test results taken from patent US20240279205A1, “NOVEL BENZIMIDAZOLE DERIVATIVE” (Carna Biosciences, Inc., priority 2020, published 2024).
Structures can show the parent of a compound that is named as a salt.

How the values were obtained:
[1] = test system: STING activation (IFN-β production in THP-1 cells); assay: Human IFN-β production inhibition test by cGAMP stimulation in THP-1 cells; assay type: cell-based; design: IFN-β bioinhibitory activity: scale not given here; details: 2'3'-cGAMP transfection, 18 hours, IFN-β ELISA; for IC50: Homo sapiens, read-out: IFN-β bioinhibitory activity
How it was run: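 PMA-primed (100 nM, overnight) THP-1 cells pretreated 1 h with compound at 0.001 to 1 μM (0.1% DMSO), then transfected with 0.12 μg/well 2′3′-cGAMP and cultured 18 hours. Supernatant IFN-β measured by ELISA; IC50 by regression against log concentration, normalised to cGAMP-only (100%) and unstimulated (0%) controls.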

human STING (hSTING) = target: T1, human STING (hSTING) (Homo sapiens, UniProt Q86WV6); assay: Inhibition test of intracellular human STING (hSTING) pathway using SEAP reporter cells (HEK-Blue ISG), stimulation with Compound 3; assay type: cell-based; design: hSTING inhibitory activity: scale not given here; details: Compound 3 10 nM stimulation, 21 hours; for IC50: read-out: hSTING inhibitory activity
T1 construct: host or cells: HEK-Blue ISG cells (HEK293-derived SEAP reporter line)
How it was run: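 IC50 derived by regressing inhibition rate against log compound concentration (0.1 to 10 μM final, added 1 h before agonist), with 0% and 100% set by wells without and with 10 nM Compound 3. SEAP colour reaction read after 21 h stimulation of HEK-Blue ISG reporter cells.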

T1 sequence (Q86WV6 whole entry H232R): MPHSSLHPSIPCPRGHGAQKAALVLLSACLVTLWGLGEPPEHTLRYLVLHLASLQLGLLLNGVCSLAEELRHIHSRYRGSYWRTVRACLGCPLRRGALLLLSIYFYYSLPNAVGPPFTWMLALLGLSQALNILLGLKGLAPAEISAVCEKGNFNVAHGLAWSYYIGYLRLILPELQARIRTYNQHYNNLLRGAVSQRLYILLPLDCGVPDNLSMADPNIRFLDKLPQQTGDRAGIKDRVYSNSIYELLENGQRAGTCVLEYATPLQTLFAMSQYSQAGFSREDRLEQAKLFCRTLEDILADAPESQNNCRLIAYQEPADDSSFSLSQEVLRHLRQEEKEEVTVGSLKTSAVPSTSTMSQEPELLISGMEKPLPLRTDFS

| IC50 [1] | hSTING inhibitory activity (human STING (hSTING)) | IC50 (human STING (hSTING)) | SMILES | IFN-β bioinhibitory activity [1] |
| --- | --- | --- | --- | --- |
| 100 to 1000 nM | * * | – | COc1cc2c(cc1C(F)(F)F)nc(Nc1c[nH]c3ccc(Cl)cc13)n2C [Embodiment 263, N-(5-Chloro-1H-indol-3-yl)-6-methoxy-1-methyl-5-(trifluoromethyl)-1H-benzo[d]imidazol-2-amine] | – |
| 100 to 1000 nM | * * | – | C=Cc1ccc2[nH]cc(Nc3nc4ccc(Oc5ccc(F)cc5)cc4n3C)c2n1 [Embodiment 191] | – |
| 100 to 1000 nM | – | 1000 to 10000 nM | COc1ccc2c(c1)nc(Nc1c[nH]c3ccc(Cl)nc13)n2C [Embodiment 159, N-(5-Chloro-1H-pyrrolo[3,2-b]pyridin-3-yl)-5-methoxy-1-methyl-1H-benzo[d]imidazol-2-amine] | – |
| 100 to 1000 nM | * * * | – | Cc1ccc2[nH]c(Nc3c[nH]c4ccc(Cl)nc34)nc2c1 [Embodiment 123, N-(5-chloro-1H-pyrrolo[3,2-b]pyridin-3-yl)-5-methyl-1H-benzo[d] imidazol-2-amine] | – |
| – | * * | – | CC(C)Cc1ccc2[nH]c(Nc3c[nH]c4ccc(Cl)nc34)nc2c1 [Embodiment 131, N-(5-Chloro-1H-pyrrolo[3,2-b]pyridin-3-yl)-5-isobutyl-1H-benzo [d]imidazol-2-amine formate] | * * |
| – | * * * | – | FC(F)(F)c1ccc2c(c1)nc(Nc1c[nH]c3ccc(Br)cc13)n2C1CC1 [Embodiment 224, N-(5-bromo-1H-indol-3-yl)-1-cyclopropyl-5-(trifluoromethyl)-1H-benzo[d]imidazol-2-amine] | * * |
| – | * * | – | FC(F)(F)c1ccc2c(c1)nc(Nc1c[nH]c3ccc(Cl)cc13)n2C1COC1 [Embodiment 226, N-(5-Chloro-1H-indol-3-yl)-1-(oxetan-3-yl)-5-(trifluoromethyl)-1H-benzo[d]imidazol-2-amine] | * * |
| ≥ 1000 nM | – | ≥ 10000 nM | COCCn1c(Nc2c[nH]c3ccc(Cl)nc23)nc2cc(C(F)(F)F)ccc21 [Embodiment 178, N-(5-chloro-1H-pyrrolo[3,2-b]pyridin-3-yl)-1-(2-methoxyethyl)-5-(trifluoromethyl)-1H-benzo[d]imidazol-2-amine] | – |
| 100 to 1000 nM | * * | – | Cn1c(Nc2c[nH]c3ccc(Cl)nc23)nc2ccc(Oc3ccccc3)cc21 [Embodiment 44, N-(5-chloro-1H-pyrrolo[3,2-b]pyridin-3-yl)-1-methyl-6-phenoxy-1H-benzo[d]imidazol-2-amine] | – |
| 100 to 1000 nM | * * | – | N#CCCn1c(Nc2c[nH]c3ccc(Cl)cc23)nc2cc(C(F)(F)F)ccc21 [Embodiment 259, 3-{2-[(5-chloro-1H-indol-3-yl)amino]-5-(trifluoromethyl)-1H-benzo [d]imidazol-1-yl]propanenitrile] | – |
| 100 to 1000 nM | – | 1000 to 10000 nM | Clc1ccc2[nH]cc(Nc3nc4c(C5=CCOCC5)cccc4[nH]3)c2n1 [Embodiment 149, N-(5-chloro-1H-pyrrolo[3,2-b]pyridin-3-yl)-4-(3,6-dihydro-2H-pyran-4-yl)-1H-benzo[d]imidazol-2-amine] | – |
| 100 to 1000 nM | * * | – | COCC#Cc1ccc2[nH]c(Nc3c[nH]c4ccc(Cl)nc34)nc2c1 [Embodiment 145, N-(5-Chloro-1H-pyrrolo[3,2-b]pyridin-3-yl)-5(3-methoxyprop-1-yn-1-yl)-1H-benzo[d]imidazole-2-amine] | – |
| ≥ 1000 nM | * * | – | Fc1cc2nc(Nc3c[nH]c4ccc(Cl)nc34)[nH]c2cc1F [Embodiment 78, N-(5-Chloro-1H-pyrrolo[3,2-b]pyridin-3-yl)-5,6-difluoro-1H-benzo[d]imidazol-2-amine] | – |
| – | * * | – | Clc1ccc2[nH]cc(Nc3nc4cc(C5CC5)ccc4[nH]3)c2n1 [Embodiment 129, N-(5-Chloro-1H-pyrrolo[3,2-b]pyridin-3-yl)-5-cyclopropyl-1H-benzo[d]imidazol-2-amine] | * * |
| 100 to 1000 nM | * * | – | CC#Cc1ccc2[nH]c(Nc3c[nH]c4ccc(Cl)nc34)nc2c1 [Embodiment 136, N-(5-Chloro-1H-pyrrolo[3,2-b]pyridin-3-yl)-5-(prop-1-yn-1-yl)-1H-benzo[d]imidazole-2-amine] | – |
| 100 to 1000 nM | * * | – | Fc1cnc2[nH]cc(Nc3nc4cc(Oc5ccccc5)ccc4[nH]3)c2c1 [Embodiment 72, N-(5-fluoro-1H-pyrrolo[2,3-b]pyridin-3-yl)-5-phenoxy-1H-benzo [d]imidazol-2-amine formate] | – |
| 100 to 1000 nM | * * | – | C=Cc1ccc2[nH]cc(Nc3nc4ccc(Oc5ccc(F)cc5)cc4n3C3CC3)c2n1 [Embodiment 188, 1-Cyclopropyl-6-(4-fluorophenoxy)-N-(5-vinyl-1H-pyrrolo[3,2-b]pyridin-3-yl)-1H-benzo[d]imidazole-2-amine] | – |
| – | * * * | – | CC(C)n1c(Nc2c[nH]c3ccc(Cl)cc23)nc2cc(C(F)(F)F)cc(F)c21 [Embodiment 242, N-(5-Chloro-1H-indol-3-yl)-7-fluoro-1-isopropyl-5-(trifluoromethyl)-1H-benzo[d]imidazol-2-amine] | * * |
| – | * * * | – | CC(C)n1c(Nc2c[nH]c3ccc(Cl)cc23)nc2cc(C(F)(F)F)ccc21 [Embodiment 218, N-(5-Chloro-1H-indol-3-yl)-1-isopropyl-5-(trifluoromethyl)-1H-benzo[d]imidazol-2-amine] | * * |
| 100 to 1000 nM | * * * | – | CC(C)n1c(Nc2c[nH]c3ccc(Cl)nc23)nc2cc(Oc3ccccc3)ccc21 [Embodiment 116, N-(5-Chloro-1H-pyrrolo[3,2-b]pyridin-3-yl)-1-isopropyl-5-phenoxy-1H-benzo[d]imidazol-2-amine] | – |
| 100 to 1000 nM | * * | – | Brc1ccc2[nH]cc(Nc3nc4cc(Oc5ccccc5)ccc4[nH]3)c2n1 [Example 12, N-(5-bromo-1H-pyrrolo[3,2-b]pyridin-3-yl)-5-phenoxy-1H-benzo[d]imidazol-2-amine] | – |
| 100 to 1000 nM | * * * | – | Fc1ccc2[nH]c(Nc3c[nH]c4ccc(Br)cc34)nc2c1 [Embodiment 33, N-(5-bromo-1H-indol-3-yl)-5-fluoro-1H-benzo[d]imidazol-2-amine] | – |
| – | * * * | – | FC(F)(F)Oc1ccc2c(c1)nc(Nc1c[nH]c3ccc(Cl)cc13)n2C1CC1 [Embodiment 231, N-(5-Chloro-1H-indol-3-yl)-1-cyclopropyl-5-(trifluoromethoxy)-1H-benzo[d]imidazol-2-amine] | * * |
| – | * * * | – | C#CCn1c(Nc2c[nH]c3ccc(Cl)cc23)nc2cc(C(F)(F)F)cc(F)c21 [Embodiment 241, N-(5-Chloro-1H-indol-3-yl)-7-fluoro-1-(prop-2-yn-1-yl)-5-(trifluoromethyl)-1H-benzo[d] imidazole-2-amine] | * * |
| – | * * * | – | CCn1c(Nc2c[nH]c3ccc(Cl)cc23)nc2cc(C(F)(F)F)cc(F)c21 [Embodiment 240] | * * |
| ≥ 1000 nM | * * | – | Cn1c(Nc2c[nH]c3ccc(Br)cc23)nc2ccccc21 [Example 18, N-(5-bromo-1H-indol-3-yl)-1-methyl-1H-benzo[d]imidazol-2-amine] | – |
| – | * * * | – | CCCn1c(Nc2c[nH]c3ccc(Cl)cc23)nc2cc(C(F)(F)F)ccc21 [Embodiment 212, N-(5-Chloro-1H-indol-3-yl)-1-propyl-5-(trifluoromethyl)-1H-benzo[d]imidazo-2-amine] | * * * |
| – | * * | – | FC(F)(F)c1ccc2[nH]c(Nc3c[nH]c4ccc(Cl)cc34)nc2c1 [Embodiment 268, N-(5-Chloro-1H-indol-3-yl)-5-(trifluoromethyl)-1H-benzo[d]imidazol-2-amine] | * * |
| – | * * | – | C#Cc1ccc2[nH]c(Nc3c[nH]c4ccc(Cl)nc34)nc2c1 [Embodiment 133, N-(5-Chloro-1H-pyrrolo[3,2-b]pyridin-3-yl)-5-ethynyl-1H-benzo[d] imidazol-2-amine formate] | * * * |
